Measurements published in patent US7608712B2, “Pyridine imidazoles and aza-indoles as progesterone receptor modulators” (Janssen Pharmaceutica N.V., priority 2004, dated 2009).

What follows are compounds tested on T47D human breast cancer cells (assay: T47D alkaline phosphatase assay (In Vitro Test)). Conditions: Homo sapiens, T47D.
Format: cell-based
Description: T47D human breast cancer cells are grown in RPMI medium without phenol red (Invitrogen) containing 10% (v/v) heat-inactivated fetal bovine serum (FBS; Hyclone), 1% (v/v) penicillin-streptomycin (Invitrogen), 1% (w/v) glutamine (Invitrogen), and […] insulin (Sigma). Incubation conditions are 37 °C in a humidified 5% (v/v) carbon dioxide environment. For assay, the cells are plated in 96-well tissue culture plates at 10,000 cells per well in assay medium [RPMI medium without phenol red (Invitrogen) containing 5% (v/v) charcoal-treated FBS (Hyclone) and 1% (v/v) penicillin-streptomycin (Invitrogen)]. Two days later, the medium is decanted and the compounds are added in a final concentration of 0.1% (v/v) dimethyl sulfoxide in fresh assay medium. Twenty-four hours later, an alkaline phosphatase assay is performed using a SEAP kit (BD Biosciences Clontech, Palo Alto, Calif.). Briefly, the medium is decanted and the cells are fixed for 30 minutes at room temperature with 5% (v/v) formalin (Sigma). The cells are washed once with room temperature Hank's buffered saline solution (Invitrogen). Equal volumes (0.05 mL) of 1× Dilution Buffer, Assay Buffer and 1:20 substrate/enhancer mixture are added. After 1-hour incubation at room temperature in the dark, the lysate is transferred to a white 96-well plate (Dynex) and luminescence is read using a LuminoSkan Ascent (Thermo Electron, Woburn, Mass.).
With `CC1(C)C(=O)Nc2ncc(-c3cccc(F)c3)cc21` [Example 31, 5-(3-Fluoro-phenyl)-3,3-dimethyl-1,3-dihydro-pyrrolo[2,3-b]pyridin-2-one] the IC50 was 4.48 µM.

Same assay, conditions: Homo sapiens, T47D, read-out: % inh.
Compound `CC1(C)C(=O)Nc2ncc(-c3cccc(F)c3)cc21` [Example 31, 5-(3-Fluoro-phenyl)-3,3-dimethyl-1,3-dihydro-pyrrolo[2,3-b]pyridin-2-one] has an inhibition at 3 µM of 95% and an inhibition at 10 µM of 92%.

Same assay, conditions: Homo sapiens, T47D; @ 3 uM; read-out: % inh.
`O=C1Nc2ncc(-c3cccc(F)c3)cc2C12CCCCC2` [Example 32, 5-(3-Fluoro-phenyl)-3,3-spiro[cyclohexane]-1,3-dihydro-pyrrolo[2,3-b]pyridin-2-one] was tested, and the inhibition at 3 µM was 58%.

Same assay, conditions: Homo sapiens, T47D; @ 10 uM; read-out: % inh.
With `O=C1Nc2ncc(-c3cccc(F)c3)cc2C12CCCCC2` [Example 32, 5-(3-Fluoro-phenyl)-3,3-spiro[cyclohexane]-1,3-dihydro-pyrrolo[2,3-b]pyridin-2-one] the inhibition at 10 µM was 58%.

Same assay, conditions: Homo sapiens, T47D; Table 4; read-out: IC50
For `O=C1Nc2ncc(-c3cccc(F)c3)cc2C12CCCCC2` [Example 32, 5-(3-Fluoro-phenyl)-3,3-spiro[cyclohexane]-1,3-dihydro-pyrrolo[2,3-b]pyridin-2-one], the IC50 was 7.03 µM.

Same assay, conditions: Homo sapiens, T47D; activation (footnote to Table 3)
For `O=C1N=C2C=CC(c3ccc(Cl)c(Cl)c3)=CN2C12CCCC2` [Example 28, 6-(3,4-Dichloro-phenyl)-3,3-spiro[pentane]-imidazo[1,2-a]pyridin-2-one], the EC50 was 1.95 µM.

Same assay, conditions: Table 3; test concentration not given
For `O=C1N=C2C=CC(c3cccc(F)c3)=CN2C12CCCC2` [Example 26, 6-(3-Fluoro-phenyl)-3,3-spiro[pentane]-imidazo[1,2-a]pyridin-2-one], the “% inh.” value was 2%. `CC1(C)C(=O)N=C2C=CC(c3ccc(F)cc3F)=CN21` [Example 10, 6-(2,4-Difluoro-phenyl)-3,3-dimethyl-imidazo[1,2-a]pyridin-2-one] was tested, and the “% inh.” value was 29%. With `O=C1N=C2C=CC(c3cc(F)cc(F)c3)=CN2C12CCCCC2` [Example 21, 6-(3,5-Difluoro-phenyl)-3,3-spiro[cyclohexane]-imidazo[1,2-a]pyridin-2-one] the “% inh.” value was 99%. For `CC1(C)C(=O)N=C2C=CC(c3ccccc3Cl)=CN21` [Example 14, 6-(2-Chloro-phenyl)-3,3-dimethyl-imidazo[1,2-a]pyridin-2-one], the “% inh.” value was 0%. With `N#Cc1cccc(C2=CN3C(=NC(=O)C34CCCCC4)C=C2)c1` [Example 20, 6-(3-cyano-phenyl)-3,3-spiro[cyclohexane]-imidazo[1,2-a]pyridin-2-one] the “% inh.” value was 96%. In the case of `CC1(C)C(=O)N=C2C=CC(Br)=CN21` [Example 1-C1, 6-Bromo-3,3-dimethyl-imidazo[1,2-a]pyridin-2-one], the “% inh.” value is reported as 53%. In the case of `CC1(C)C(=O)N=C2C=CC(c3cccc(C#N)c3)=CN21` [Example 4, 3-(3,3-Dimethyl-2-oxo-2,3-dihydro-imidazo[1,2-a]pyridin-6-yl)-benzonitrile], the “% inh.” value is reported as 19%. `CC1(C)C(=O)N=C2C=CC(c3cccc([N+](=O)[O-])c3)=CN21` [Example 8, 3,3-Dimethyl-6-(3-nitro-phenyl)-imidazo[1,2-a]pyridin-2-one] was tested, and the “% inh.” value was 33%. With `O=C1N=C2C=CC(c3cc(C(F)(F)F)cc(C(F)(F)F)c3)=CN2C12CCCCC2` [Example 17, 6-(3,5-Bis-trifluoromethyl-phenyl)-3,3-spiro[cyclohexane]-imidazo[1,2-a]pyridin-2-one] the “% inh.” value was 04%. `O=C1N=C2C=CC(c3ccc(F)cc3F)=CN2C12CCCCC2` [Example 23, 6-(2,4-Difluoro-phenyl)-3,3-spiro[cyclohexane]-imidazo[1,2-a]pyridin-2-one] was tested, and the “% inh.” value was 96%. With `O=C1N=C2C=CC(c3cccc(C(F)(F)F)c3)=CN2C12CCCCC2` [Example 19, 6-(3-trifluoromethyl-phenyl)-3,3-spiro[cyclohexane]-imidazo[1,2-a]pyridin-2-one] the “% inh.” value was 97%. In the case of `N#Cc1cccc(C2=CN3C(=NC(=O)C34CCCC4)C=C2)c1` [Example 25, 6-(3-cyano-phenyl)-3,3-spiro[pentane]-imidazo[1,2-a]pyridin-2-one], the “% inh.” value is reported as 2%. In the case of `CC1(C)C(=O)N=C2C=CC(c3cccc(C(F)(F)F)c3)=CN21` [Example 9, 3,3-Dimethyl-6-(3-trifluoromethyl-phenyl)-imidazo[1,2-a]pyridin-2-one], the “% inh.” value is reported as 17%. With `CC1(C)C(=O)N=C2C=CC(c3cc(F)cc(F)c3)=CN21` [Example 7, 6-(3,5-Difluoro-phenyl)-3,3-dimethyl-imidazo[1,2-a]pyridin-2-one] the “% inh.” value was 40%. For `CC1(C)C(=O)N=C2C=CC(c3cccc(Cl)c3)=CN21` [Example 2, 6-(3-Chloro-phenyl)-3,3-dimethyl-imidazo[1,2-a]pyridin-2-one], the “% inh.” value was 15%. `O=C1N=C2C=CC(c3cccc([N+](=O)[O-])c3)=CN2C12CCCC2` [Example 27, 6-(3-nitro-phenyl)-3,3-spiro[pentane]-imidazo[1,2-a]pyridin-2-one] was tested, and the “% inh.” value was 86%. In the case of `O=C1N=C2C=CC(Br)=CN2C12CCCC2` [Example 1-C2, 6-Bromo-3,3-spiro[cyclopentane]-imidazo[1,2-a]pyridin-2-one], the “% inh.” value is reported as 35%. In the case of `O=C1N=C2C=CC(c3cc(C(F)(F)F)cc(C(F)(F)F)c3)=CN2C12CCCC2` [Example 29, 6-(3,5-Bis-trifluoromethyl-phenyl)-3,3-spiro[pentane]-imidazo[1,2-a]pyridin-2-one], the “% inh.” value is reported as 25%. For `CC1(C)C(=O)N=C2C=CC(c3cc(C(F)(F)F)cc(C(F)(F)F)c3)=CN21` [Example 11, 6-(3,5-Bis-trifluoromethyl-phenyl)-3,3-dimethyl-imidazo[1,2-a]pyridin-2-one], the “% inh.” value was 19%. With `O=C1N=C2C=CC(c3cccc(Cl)c3)=CN2C12CCCC2` [Example 24, 6-(3-chloro-phenyl)-3,3-spiro[pentane]-imidazo[1,2-a]pyridin-2-one] the “% inh.” value was 1%. `CC1(C)C(=O)N=C2C=CC(Cl)=CN21` [Example 5, 6-Chloro-3,3-dimethyl-imidazo[1,2-a]pyridin-2-one] was tested, and the “% inh.” value was 31%. In the case of `O=C1N=C2C=CC(c3ccc(Cl)c(Cl)c3)=CN2C12CCCC2` [Example 28, 6-(3,4-Dichloro-phenyl)-3,3-spiro[pentane]-imidazo[1,2-a]pyridin-2-one], the “% inh.” value is reported as 22%. For `O=C1N=C2C=CC(c3ccc(F)c(Cl)c3)=CN2C12CCCC2` [Example 30, 6-(3-Chloro-4-fluoro-phenyl)-3,3-spiro[pentane]-imidazo[1,2-a]pyridin-2-one], the “% inh.” value was 21%. With `O=C1N=C2C=CC(c3cccc(F)c3)=CN2C12CCCCC2` [Example 15, 6-(3-Fluoro-phenyl)-3,3-spiro[cyclohexane]-imidazo[1,2-a]pyridin-2-one] the “% inh.” value was 0%. For `O=C1N=C2C=CC(Cl)=CN2C12CCCCC2` [Example 6, 6-Chloro-spiro[cyclohexane]-imidazo[1,2-a]pyridin-2-one], the “% inh.” value was 42%. With `O=C1N=C2C=CC(c3ccc(Cl)c(Cl)c3)=CN2C12CCCCC2` [Example 22] the “% inh.” value was 88%. For `CC1(C)C(=O)N=C2C=CC(c3cccc(F)c3)=CN21` [Example 13, 6-(3-Fluoro-phenyl)-3,3-dimethyl-imidazo[1,2-a]pyridin-2-one], the “% inh.” value was 14%. In the case of `COc1cccc(C2=CN3C(=NC(=O)C34CCCCC4)C=C2)c1` [Example 16, 6-(3-Methoxy-phenyl)-3,3-spiro[cyclohexane]-imidazo[1,2-a]pyridin-2-one], the “% inh.” value is reported as 01%. For `O=C1N=C2C=CC(c3cccc([N+](=O)[O-])c3)=CN2C12CCCCC2` [Example 18, 6-(3-nitro-phenyl)-3,3-spiro[cyclohexane]-imidazo[1,2-a]pyridin-2-one], the “% inh.” value was 98%. `O=C1N=C2C=CC(c3cccc(Cl)c3)=CN2C12CCCCC2` [Example 3, 6-(3-chloro-phenyl)-3,3-spiro[cyclohexane]-imidazo[1,2-a]pyridin-2-one] was tested, and the “% inh.” value was 104%. In the case of `COc1cccc(C2=CN3C(=NC(=O)C3(C)C)C=C2)c1` [Example 12, 6-(3-Methoxy-phenyl)-3,3-dimethyl-imidazo[1,2-a]pyridin-2-one], the “% inh.” value is reported as 3.1%.
